# Laboratory results reported in patent US9067949B2, “Benzofuro[3,2-c] pyridines and related analogs as serotonin sub-type 6 (5-HT6) modulators for the treatment of obesity, metabolic syndrome, cognition and schizophrenia” (Albany Molecular Research, Inc., priority 2011, dated 2015).
# pKi: −log10 of the molar value. Counter-ions that a name gives are not always drawn.
# Target: human 5-HT6 receptor (Homo sapiens (Human), UniProt P50406)
# Experiment: 5-HT6 radioligand binding assay (SPA format, [N-methyl-3H]-LSD)
# Settings: human 5-HT6 receptor membranes, 10 nM [N-methyl-3H]-LSD; Ki by Cheng-Prusoff; hydrochloride; read-out: human 5HT6 Ki
# Protocol: The relative affinities of the various compounds for the 5-HT6 receptor were measured in a radioligand binding assay, using a scintillation proximity assay (SPA) format.
# For binding analysis vs. the human receptor, samples were incubated in 50 mM Tris-HCl, pH 7.5, 5 mM MgCl2, 1 mM EDTA (4% DMSO final) with 10 nM [N-methyl-^3H]-LSD (Perkin Elmer), 2.5 ng of human 5-HT6 receptor membranes (Millipore) and 50 μg SPA beads (PVT-PEI-WGA, GE Healthcare) per well in a final volume of 0.2 mL. […] Binding reactions were performed in PicoPlate96 microtiter plates (Perkin Elmer) by consecutively adding 50 μL of each competing compound or buffer, SPA beads, radioligand and 5-HT6 receptor membranes. After an overnight incubation at room temperature on a Nutator mixer, plates were centrifuged for 15 min at 1,500 rpm, followed by incubation in the dark for 10 min. […] Total binding control contained compound dilution buffer only; nonspecific binding is determined in the presence of 100 μM 5-hydroxytryptamine. Specific binding was determined by subtracting nonspecific binding from total binding.
# All experiments were performed in duplicate using ten concentrations of competing ligand, with clozapine included as a control in every run. IC50 values were determined from specific binding data using XLfit4.1 curve fitting software from IDBS Ltd. The inhibition constant (Ki) was calculated using the Cheng-Prusoff equation: (Ki=IC50/(1+(L/KD)), where L=concentration of radioligand in the assay, and KD=affinity of the radioligand for the receptor.
# Chain of human 5-HT6 receptor (P50406 whole entry): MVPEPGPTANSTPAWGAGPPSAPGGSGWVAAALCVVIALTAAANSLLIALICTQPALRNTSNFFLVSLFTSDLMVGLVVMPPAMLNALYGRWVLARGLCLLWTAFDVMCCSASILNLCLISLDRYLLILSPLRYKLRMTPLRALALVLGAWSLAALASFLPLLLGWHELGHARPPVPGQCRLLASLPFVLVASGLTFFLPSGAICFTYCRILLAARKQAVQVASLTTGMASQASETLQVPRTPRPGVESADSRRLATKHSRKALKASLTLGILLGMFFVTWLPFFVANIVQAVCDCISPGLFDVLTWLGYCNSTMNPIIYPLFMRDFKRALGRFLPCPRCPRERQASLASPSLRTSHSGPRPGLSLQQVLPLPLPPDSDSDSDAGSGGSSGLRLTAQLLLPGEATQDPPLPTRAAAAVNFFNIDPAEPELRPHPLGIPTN
row,SMILES,pKi
1,"CC1NCCc2oc3c(Cl)cc(S(=O)(=O)c4ccccc4)cc3c21 (racemic) [Example 81a, 6-chloro-1-methyl-8-(phenylsulfonyl)-1,2,3,4-tetrahydrobenzofuro[3,2-c]pyridine hydrochloride]",9.46
2,"CC1NCCc2oc3c(Cl)cc(S(=O)(=O)c4ccccc4)cc3c21 (single isomer, unassigned; (-)) [Example 82b, (−) 6-chloro-1-methyl-8-(phenylsulfonyl)-1,2,3,4-tetrahydrobenzofuro[3,2-c]pyridine hydrochloride]",9.82

# Same assay, conditions: human 5-HT6 receptor membranes, 10 nM [N-methyl-3H]-LSD; Ki by Cheng-Prusoff; read-out: human 5HT6 Ki
row,SMILES,pKi
1,Cc1cc(S(=O)(=O)c2ccc3sccc3c2)cc2c3c(oc12)CCNC3 [Example 204],9.64
2,Cn1cc(S(=O)(=O)c2cc(C#N)c3oc4c(c3c2)CNCC4)c2ccccc21 [Example 211],9.40
3,O=S(=O)(c1ccccc1)c1cc(Cl)c2oc3c(c2c1)CN(C1COC1)CC3 [Example 150],7.12
4,CC(=O)N1CCc2oc3c(Cl)cc(S(=O)(=O)c4ccccc4)cc3c2C1 [Example 239],8.02
5,COc1cc(S(=O)(=O)c2ccc(Cl)cc2)cc2c3c(oc12)CCNC3 [Example 189],9.55
6,COc1cc(S(=O)(=O)c2cccc(C(F)(F)F)c2)cc2c3c(oc12)CCNC3 [Example 167],9.89
7,O=S(=O)(c1ccccc1)c1cc(N2CCOCC2)c2oc3c(c2c1)CNCC3 [Example 228],7.33
8,Cc1cc(S(=O)(=O)c2ccccc2F)cc2c3c(oc12)CCNC3 [Example 194],9.41
9,CC(O)CN1CCc2oc3c(Cl)cc(S(=O)(=O)c4ccccc4)cc3c2C1 (stereo not drawn) [Example 151],8.77
10,"COc1cc(S(=O)(=O)c2ccc3[nH]ccc3c2)cc2c3c(oc12)CCNC3 [Example 70, 8-(1H-indol-5-ylsulfonyl)-6-methoxy-1,2,3,4-tetrahydrobenzofuro[3,2-c]pyridine hydrochloride]",10.08
11,COc1cc(S(=O)(=O)c2cccc(Cl)c2)cc2c3c(oc12)CCNC3 [Example 190],10.30
12,Clc1cc(Cc2ccccc2)cc2c3c(oc12)CCNC3 [Example 236],7.62
13,Cn1ccc(-c2cc(S(=O)(=O)c3ccccc3)cc3c4c(oc23)CCNC4)n1 [Example 227],7.22
14,"O=S(=O)(c1ccccc1)c1cc(Cl)c2oc3c(c2c1)CC(O)CC3 (racemic) [Example 97, 6-chloro-8-(phenylsulfonyl)-1,2,3,4-tetrahydrodibenzo[b,d]furan-2-ol]",8.77
15,"O=S(=O)(c1ccccc1)c1cc(CO)c2oc3c(c2c1)CNCC3 [Example 74, (8-(phenylsulfonyl)-1,2,3,4-tetrahydrobenzofuro[3,2-c]pyridin-6-yl)methanol hydrochloride]",7.89
16,CCOc1cc(S(=O)(=O)c2ccccc2)cc2c3c(oc12)CCNC3 [Example 215],9.96
17,O=S(=O)(c1cccc(CO)c1)c1cc(Cl)c2oc3c(c2c1)CNCC3 [Example 110],8.36
18,COc1cc(S(=O)(=O)c2ccc(C3CCOC3)cc2)cc2c3c(oc12)CCNC3 (stereo not drawn) [Example 180],8.66
19,COc1cc(S(=O)(=O)c2ccc3c(c2)CCOC3)cc2c3c(oc12)CCNC3 [Example 158],9.32
20,CC(O)c1ccc(S(=O)(=O)c2cc(Cl)c3oc4c(c3c2)CNCC4)cc1 (stereo not drawn) [Example 137],8.25
21,COc1cc(S(=O)(=O)c2cccc([C@H](C)O)c2)cc2c3c(oc12)CCNC3 [Example 175],8.92
22,O=S(=O)(c1ccc(F)cc1)c1cc(Cl)c2oc3c(c2c1)CNCC3 [Example 128],8.52
23,O=S(=O)(c1cc(Cl)c2oc3c(c2c1)CNCC3)c1ccccc1Cl [Example 100],9.11
24,COc1cc(S(=O)(=O)c2cc(Cl)cc(Cl)c2)cc2c3c(oc12)CCNC3 [Example 191],9.64
25,"CNC(=O)c1cc(S(=O)(=O)c2ccccc2)cc2c3c(oc12)CCNC3 [Example 78, N-methyl-8-(phenylsulfonyl)-1,2,3,4-tetrahydrobenzofuro[3,2-c]pyridine-6-carboxamide hydrochloride]",6.22

row,SMILES,pKi
1,N#Cc1cc(S(=O)(=O)c2ccc(Cl)cc2)cc2c3c(oc12)CCNC3 [Example 212],8.06
2,COc1cc(S(=O)(=O)c2cccc(C(C)O)c2)cc2c3c(oc12)CCNC3 (stereo not drawn) [Example 173],9.22
3,O=S(=O)(c1ccc2[nH]ccc2c1)c1cc(Cl)c2oc3c(c2c1)CNCC3 [Example 143],9.89
4,"O=S(=O)(c1cccc(C(F)(F)F)c1)c1cc(Cl)c2oc3c(c2c1)CNCC3 [Example 45, 6-Chloro-8-(3-trifluoromethylphenylsulfonyl)-1,2,3,4-tetrahydrobenzofuro[3,2-c]pyridine hydrochloride]",9.32
5,Cc1cc(S(=O)(=O)c2cc(F)cc(F)c2)cc2c3c(oc12)CCNC3 [Example 197],8.89
6,COc1cc(S(=O)(=O)c2ccc(OC(F)F)cc2)cc2c3c(oc12)CCNC3 [Example 164],9.40
7,COc1cc(S(=O)(=O)c2ccccc2CO)cc2c3c(oc12)CCNC3 [Example 159],8.82
8,"O=S(=O)(c1cccc(C2CCOC2)c1)c1cc(Cl)c2oc3c(c2c1)CNCC3 (stereo not drawn) [Example 71, 6-chloro-8-(3-(tetrahydrofuran-3-yl)phenylsulfonyl)-1,2,3,4-tetrahydrobenzofuro[3,2-c]pyridine hydrochloride]",8.70
9,COc1cc(S(=O)(=O)c2cccc(C(C)(C)O)c2)cc2c3c(oc12)CCNC3 [Example 177],9.46
10,[O-][S+](c1ccccc1)c1cc(Cl)c2oc3c(c2c1)CNCC3 (stereo not drawn) [Example 231],8.51
11,O=S(=O)(c1ccc2c(c1)CCOC2)c1cc(Cl)c2oc3c(c2c1)CNCC3 [Example 106],8.60
12,"O=S(=O)(c1cccc(F)c1)c1ccc2c3c(oc2c1)CC1CCC3N1 (stereo not drawn) [Example 66, 3-(3-Fluorophenyl)sulfonyl-6,7,8,9,10-pentahydro-7,10-epiminocyclohepta[b]benzofuran hydrochloride]",6.27
13,COc1cc(S(=O)(=O)c2cccc(C(O)C(F)(F)F)c2)cc2c3c(oc12)CCNC3 (stereo not drawn) [Example 178],9.49
14,Cc1cc(S(=O)(=O)c2cc(Cl)cc(Cl)c2)cc2c3c(oc12)CCNC3 [Example 198],8.92
15,CC(C)(O)COc1cc(S(=O)(=O)c2ccccc2)cc2c3c(oc12)CCNC3 [Example 218],6.29
16,COCc1ccc(S(=O)(=O)c2cc(Cl)c3oc4c(c3c2)CNCC4)cc1 [Example 109],7.85
17,CC(C)(O)c1ccc(S(=O)(=O)c2cc(Cl)c3oc4c(c3c2)CNCC4)cc1 [Example 108],8.89
18,COc1cc(Oc2ccccc2)cc2c3c(oc12)CCNC3 [Example 237],6.19
19,CN1CCc2oc3c(Cl)cc(S(=O)(=O)c4ccccc4)cc3c2C1 [Example 116],9.00
20,COc1cc(S(=O)(=O)c2cc(F)cc(Cl)c2)cc2c3c(oc12)CCNC3 [Example 188],9.96
21,CC(O)c1ccccc1S(=O)(=O)c1cc(Cl)c2oc3c(c2c1)CNCC3 (stereo not drawn) [Example 135],7.70
22,O=S(=O)(c1cccc(C(F)(F)F)c1)c1cc(F)c2oc3c(c2c1)CNCC3 [Example 206],8.23
23,"Cc1cc(S(=O)(=O)c2ccccc2)cc2c3c(oc12)CCNC3 [Example 53, 6-Methyl-8-(phenylsulfonyl)-1,2,3,4-tetrahydrobenzofuro[3,2-c]pyridine hydrochloride]",9.66
24,COc1cc(S(=O)(=O)c2ccccc2)cc2c3c(oc12)CCC(O)C3 (stereo not drawn) [Example 238],9.23
